Reference: US20230263822A1, “MODULATION OF FACTOR 11 EXPRESSION” (Ionis Pharmaceuticals, Inc., priority 2008, published 2023)
Entries after “also recorded” stand apart in the source; their conditions may differ.

How the values were obtained:
blood coagulation [1] = assay: PT and aPTT vs warfarin (Example 13); format: in vivo, BALB/c mice; conditions: for PT INR / aPTT INR: PPP two days after final dose
Method: In a control group, BALB/c mice were treated with PBS, administered subcutaneously mice twice a week for 3 weeks.
Two days after the final dose was administered, PPP was collected and PT and aPTT assays were performed.
PT and aPTT values provided in Table 16 are reported as International Normalized Ratio (INR) values. […] This ratio was then raised to the power of the International Sensitivity Index (ISI) of the tissue factor used.

blood coagulation [2] = assay: PT and aPTT, combination with LOVENOX (Example 19); format: in vivo, BALB/c mice
Method: PT and aPTT were measured using PPP from mice treated with ISIS 404071 in combination with LOVENOX. In the first cohort, ISIS 404071 was administered subcutaneously to BALB/c mice at a dosage of 25 mg/kg twice a week for 3 weeks. Plasma was collected from these mice 5 days after receiving the last dose of ISIS 404071. In the second cohort, LOVENOX was administered subcutaneously to BALB/c mice at a dosage of 20 mg/kg once daily for three days. Plasma was collected from these mice 4 hours after receiving the last dose of LOVENOX. In the third cohort, ISIS 404071 was administered subcutaneously to BALB/c mice at a dosage of 20 mg/kg twice a week for 3 weeks, and 2 days after receiving the last dose of ISIS 404071, LOVENOX was administered subcutaneously at a dosage of 20 mg/kg once daily. Plasma was collected from these mice 4 hours after the last dose of LOVENOX. In a fourth cohort, PBS was administered subcutaneously twice a week for three weeks, as a control. Plasma was collected from these mice 5 days after the last dose.
PT and aPTT values provided in Table 31 are reported as International Normalized Ratio (INR) values. […] Also shown in Table 31, treatment with LOVENOX and treatment with ISIS 404071 combined with LOVENOX increase aPTT.

platelet factor-4 (PF-4) = assay: Thrombus formation by PF-4 real-time PCR, FeCl3 induced venous thrombosis model vs warfarin (Example 11); format: in vivo, BALB/c mice; conditions: for PF-4 in vena cava, percentage as compared to PBS controls (thrombus formation): + FeCl3
Method: (§1) Two control groups of BALB/c mice were treated with PBS, administered subcutaneously twice a week for 3 weeks. Two days after the last dose of PBS, mice in both groups were anesthetized with 150 mg/kg ketamine mixed with 10 mg/kg xylazine administered by intraperitoneal injection. Thrombus formation was induced with FeCl3 in all groups of mice except the first control group.
(§2) In mice undergoing FeCl3 treatment, thrombus formation was induced by applying a piece of filter paper (2×4 mm) pre-saturated with 10% FeCl3 solution directly on the vena cava. After 3 minutes of exposure, the filter paper was removed. Thirty minutes after the filter paper application, a fixed length of the vein containing the thrombus was dissected out for platelet analysis. Liver was collected for RNA analysis.
Real-time PCR quantification of platelet factor-4 (PF-4) was used to quantify platelets in the vena cava as a measure of thrombus formation.

Factor 11 mRNA = Factor 11 mRNA in liver, FeCl3 induced venous thrombosis model vs warfarin (Example 11); format: in vivo, BALB/c mice; conditions: for % inhibition of Factor 11 mRNA in liver relative to PBS control: FeCl3 VT model
Method: as §1, §2
RNA was extracted from liver tissue for real-time PCR analysis of Factor 11.

murine Factor 11 mRNA = assay: Time course of Factor 11 mRNA reduction in liver after one dose (Example 29); format: in vivo; conditions: BALB/c mice, one s.c. dose of 50 mg/kg, 12 hours to 56 days
Method: One dose of 50 mg/kg ISIS 404071 was administered subcutaneously to BALB/c mice. Following ISIS 404071 administration, mice were sacrificed at 12 hours, 1 day, 2 days, 3 days, 4 days, 7 days, 14 days, 28 days, and 56 days. Whole liver was collected for RNA analysis and PPP was collected for aPTT analysis. A control group of mice was treated with one subcutaneous dose of PBS.
RNA was extracted from liver tissue for real-time PCR analysis of Factor 11. Results are presented relative to PBS control. […] Mice began regaining Factor 11 mRNA expression by day 14.

blood coagulation [3] = assay: Ex vivo PT and aPTT in murine plasma, ISIS 404071 with LOVENOX (Example 16); set-up: species or system BALB/c mice; conditions: for PT INR in murine plasma / aPTT INR in murine plasma: LOVENOX 0
Method: A control mouse group was treated with PBS, administered twice a week for 3 weeks. Five days after the last dose, the mice were sacrificed and plasma was collected. The low-molecular-weight (LMW) heparin, LOVENOX, was administered to the plasma ex vivo at varying concentrations of 0 μg/ml, 2.5 μg/ml, 5.0 μg/ml, and 7.5 μg/ml. PT and aPTT were measured 20 minutes after LOVENOX was administered.

[4] = BALB/c mice, ISIS 404071 1.25-40 mg/kg, warfarin 0.5-5 mg/kg
[5] = ISIS 404071 1.25 mg/kg subcutaneously twice a week for 3 weeks
[6] = ISIS 404071 5 mg/kg subcutaneously twice a week for 3 weeks
[7] = ISIS 404071 10 mg/kg subcutaneously twice a week for 3 weeks
[8] = ISIS 404071 20 mg/kg subcutaneously twice a week for 3 weeks
[9] = ISIS 404071 40 mg/kg subcutaneously twice a week for 3 weeks
[10] = ISIS 404071 alone 25 mg/kg s.c. twice a week for 3 weeks, LOVENOX alone 20 mg/kg s.c. once daily for three days, combination 20 mg/kg + 20 mg/kg
[11] = ISIS 404071 10 mg/kg s.c. twice a week for 3 weeks
[12] = ISIS 404071 20 mg/kg s.c. twice a week for 3 weeks
[13] = ISIS 404071 40 mg/kg s.c. twice a week for 3 weeks
[14] = murine plasma, ISIS 404071 10-40 mg/kg in vivo, LOVENOX 0-7.5 μg/ml ex vivo

## ISIS 404071: antisense oligonucleotide targeted to murine Factor 11 mRNA, TGGTAATCCACTTTCAGAGG, target start site 869 (chemistry not given here)
Blood coagulation [1]; [4]
  PT: did not significantly affect PT
  aPTT: did prolong aPTT
Blood coagulation [1]; [5]
  PT INR: 0.99 INR
  aPTT INR: 0.98 INR
Blood coagulation [1]; [6]
  PT INR: 1.07 INR
  aPTT INR: 1.09 INR
Blood coagulation [1]; [7]
  PT INR: 1.08 INR
  aPTT INR: 1.29 INR
Blood coagulation [1]; [8]
  PT INR: 1.09 INR
  aPTT INR: 1.32 INR
Blood coagulation [1]; [9]
  PT INR: 0.98 INR
  aPTT INR: 1.64 INR
Blood coagulation [2]; BALB/c mice, ISIS 404071 25 or 20 mg/kg, LOVENOX 20 mg/kg
  PT: not significantly affected
Blood coagulation [2]; [10]
  PT INR: 0.95 INR
  aPTT INR: 1.31 INR
Platelet factor-4 (PF-4); FeCl3 induced VT model, vs PBS control
  PF-4 in vena cava as measure of thrombus formation: dose-dependent reduction of PF-4 in comparison to the PBS control for dosages of 5 mg/kg and higher
Platelet factor-4 (PF-4); [5]
  PF-4 in vena cava, percentage as compared to PBS controls (thrombus formation): 143%
Platelet factor-4 (PF-4); [6]
  PF-4 in vena cava, percentage as compared to PBS controls (thrombus formation): 95%
Platelet factor-4 (PF-4); [7]
  PF-4 in vena cava, percentage as compared to PBS controls (thrombus formation): 21%
Platelet factor-4 (PF-4); [8]
  PF-4 in vena cava, percentage as compared to PBS controls (thrombus formation): 37%
Platelet factor-4 (PF-4); [9]
  PF-4 in vena cava, percentage as compared to PBS controls (thrombus formation): 20%
Factor 11 mRNA; FeCl3 induced VT model, ISIS 404071 1.25-40 mg/kg s.c. twice a week 3 weeks, warfarin 0.5-5 mg/kg daily 6 days
  Factor 11 mRNA in liver vs PBS control: significant dose-dependent reduction of Factor 11 mRNA
Factor 11 mRNA; [5]
  % inhibition of Factor 11 mRNA in liver relative to PBS control: 0%
Factor 11 mRNA; [6]
  % inhibition of Factor 11 mRNA in liver relative to PBS control: 62%
Factor 11 mRNA; [7]
  % inhibition of Factor 11 mRNA in liver relative to PBS control: 78%
Factor 11 mRNA; [8]
  % inhibition of Factor 11 mRNA in liver relative to PBS control: 92%
Factor 11 mRNA; [9]
  % inhibition of Factor 11 mRNA in liver relative to PBS control: 96%
Murine Factor 11 mRNA
  Factor 11 mRNA expression in liver over time: significant Factor 11 mRNA down-regulation by day 1; also recorded: regained full Factor 11 mRNA expression by day 28; also recorded: did not experience a rebound effect
Blood coagulation [3]; [11]
  PT INR in murine plasma: 0.97 INR
  aPTT INR in murine plasma: 1.14 INR
Blood coagulation [3]; [12]
  PT INR in murine plasma: 1.00 INR
  aPTT INR in murine plasma: 1.28 INR
Blood coagulation [3]; [13]
  PT INR in murine plasma: 0.97 INR
  aPTT INR in murine plasma: 1.52 INR
Blood coagulation [3]; [14]
  PT: does not significantly increase PT
  aPTT: also increases aPTT in a dose-dependent manner
